Test results published in patent US12466824B2, “Stable polymorphic form of 6-fluoro-9-methyl-9H-β-carboline and uses thereof” (AudioCure Pharma GmbH, priority 2019, dated 2025).
“Also recorded” adds a separate entry of the source.

What was measured:
[1] = Polymorph stability under manufacturing processes; format: physicochemical; details: drying, milling, micronization, wet granulation, spray-drying, compaction
Source text: Various dissolution/crystallization conditions have been applied to try to convert polymorph B into polymorph A. As mentioned above, only with sophisticated procedures polymorph B could be fully converted into polymorph A (Example 4). Polymorphic forms of a drug substance can undergo phase conversion when exposed to a range of manufacturing processes, such as drying, milling, micronization, wet granulation, spray-drying, and compaction. Exposure to environmental conditions such as humidity and temperature can also induce polymorph conversion. Therefore, polymorph A is unstable and thus not suited for pharmaceutical processes, while polymorph B was stable under all these conditions including drying, milling, micronization, wet granulation, spray-drying, and compaction.

[2] = Polymorph stability in poloxamer-based formulation (XRPD); format: physicochemical; details: for conversion of polymorphic form A into polymorphic form B: XRPD
Description: In a series of experiments, the polymorph stability has been analyzed. Micronized (≤20 μm) polymorphs A and B were added to phosphate buffer containing a non-ionic tenside as vehicle formulation. […]
2 mL of poloxamer based formulation with 12 mg/ml 6-FMC were cooled to 4° C., vortexed and transferred into a 2 mL Eppendorf vial. The cooled vial was centrifuged for 2 min with a table-centrifuge, the supernatant polymer solution was removed with a pipette and discarded. The remaining 6-FMC was resuspended and vortexed with 1.5 mL of ice cold milli-Q water and centrifuged down as described before. The supernatant water was again removed with a pipette and the washing procedure is repeated 3 times (in total 4 washings). Note: Keep the solution cool to facilitate the centrifugation process. After the last washing, the remaining white 6-FMC is cooled with liquid nitrogen and freeze dried overnight at 100 Pa at room temperature.
After 30 hours in formulation 60% of polymorphic form A is converted into polymorphic form B (see FIG. 10). Keeping the formulation for 48 hours or longer results in 100% conversion of polymorphic form A into polymorphic form B as shown in FIG. 11.

[3] = test system: noise induced hearing loss model (NIHL) in guinea pigs; test: Noise induced hearing loss (NIHL) guinea pig model, intratympanic application, PTS by BERA; format: in vivo; details: single intratympanic 0.12 mg; for level of improvement of the PTS: across investigated frequencies (FIG. 13 / FIG. 14)
Description: The effect of an intratympanic administration of polymorph A of 6-FMC (0.12 mg) prepared freshly (less than 24 h before use) on the Permanent Threshold Shift has been investigated in guinea pigs (FIG. 13). The Permanent Threshold Shift (PTS) is defined as the difference between the post-traumatic hearing threshold measured on day 14 and the baseline hearing threshold measured on day −3.
Furthermore, the effect of an intratympanic administration of polymorph B of 6-FMC (0.12 mg) prepared at least 48 h before use, on the PTS in guinea pigs is presented in FIG. 14.
General procedures: All in vivo proof of principle studies were performed in the well-established guinea pig model of NIHL. […] Hearing function was assessed by brain evoked response audiometry (BERA).
Methods: Adult guinea pigs received an intratympanic (i.t.) injection of either 6-FMC formulated in a thermosensitive hydrogel or hydrogel alone. All procedures were performed under anesthesia. BERA was used to measure auditory brainstem responses (ABRs) on day −3 and day 14. The auditory stimuli were sinus tones (10 ms duration at 4, 8, 16 kHz) at 5 dB steps from 0-90 dB. These measurements were used to calculate the PTS. The acoustic trauma was performed on day 0 and consisted of a single continuous band (quarter-octave centered at 8 kHz) at 118 dB SPL for 30 min. Animals were treated 1 h after the end of the acoustic exposure. The round window was visualized under a surgical microscope via a small hole drilled in the bone of the bulla of the left ear. 10 μL of gel containing either 6-FMC or vehicle was injected using a Hamilton syringe and a motorized pump onto the round window membrane (RWM) before the hole was closed with dental cement.
Formulation preparation: a non-ionic tenside based solution is prepared in advance, by dissolving an appropriate amount of the non-ionic tenside in water or in PBS buffer and allowing for an overnight mixing under refrigerated conditions. Once the non-ionic tenside is completely dissolved, osmolality and pH are adjusted if desired. Next the solution is filtered through a 500 μm sieve to remove undissolved gel particles. This concludes compounding of the vehicle. API (Active Pharmaceutical Ingredient) containing formulation is prepared by addition of micronized 6-FMC (≤50 μm) at a concentration of 12 mg/mL. For experiments presented in FIG. 13, 6-FMC formulation was applied directly after being prepared. For experiments in FIG. 14, 6-FMC formulation was prepared at least 48 h prior to animal experiments.

[4] = Melting/cooling and vacuum sublimation of polymorph powders; format: physicochemical
Description: The polymorph B sample melted at ˜123° C. […] (FIG. 6B).

[5] = Polymorph conversion under various thermal conditions (polymorph B to polymorph A), XRPD; format: physicochemical
Description: 3-1: Polymorph B of 6-FMC was dissolved in n-heptane, the suspension was heated (100° C.) for 1:45 h under stirring. Then the suspension was cooled and stirred at room temperature for 15 hrs. The precipitate was filtered, washed with n-heptane and dried by air.
3-2: Polymorph B of 6-FMC was diluted in toluene and heated up to 95° C. and cooled down to room temperature. The precipitate was filtered, washed with toluene and dried in an air stream.
3-3: A suspension of polymorph B of 6-FMC was diluted in n-heptane and heated up to 110° C. It was kept for 5 hrs 18 min in a flask under reflux conditions, followed by gentle cooling down to room temperature, stirred for 16 hrs. The precipitate was filtered, washed with heptane and dried by air.
3-4: A suspension of polymorph B of 6-FMC was diluted in n-heptane and heated up to 108° C. until the substance was completely diluted. Seed crystals of polymorph A were added to the solution which was gentle cooled down to room temperature. The precipitate was filtered, washed with n-heptane and dried by air.

[6] = Polymorph conversion using supercritical CO2; format: physicochemical; details: 60° C., 350 bar (35 MPa), 2.5 h
Description: Extraction/polymorph conversion with supercritical CO2 was performed with 500 mg of crude, off-white polymorph B in an ExtrateX Rapid Expansion of a Supercritical Solution (REES) system. The extraction vessel was heated to 60° C. with a pressure of 350 bar. The nozzle was a stainless-steel capillary 5 cm length, inner diameter 0.25 mm at 70° C. The expansion vessel was heated to 40° C. at 1-5 Mpa. Equilibration time: 2.5 h; spraying-time: 15 min.
The cylinder of the apparatus in which the supercritical CO2 had been introduced was loaded with polymorph B (FIG. 9A) and heated to 60° C. and a pressure of 35 MPa. The time amounted to 2.5 hrs during which the API dissolved completely in the supercritical CO2.

[7] = day 14 vs day -3, listed as polymorphic form A
[8] = day 14 vs day -3, listed as polymorphic form B

| Compound | stability under manufacturing processes [1] | conversion of polymorphic form A into polymorphic form B ([2]; 30 hours in poloxamer based formulation (phosphate buffer, non-ionic tenside), micronized) | conversion of polymorphic form A into polymorphic form B ([2]; 48 hours in poloxamer based formulation, listed as polymorphic A) | level of improvement of the PTS [3] | recovery of the PTS compared to vehicle treated animals ([3]; at 16 kHz) | average PTS (threshold shift) in treated animals [3, 7] | average PTS reduction versus vehicle-treated controls [3, 7] | polymorph conversion in the melt (diffractometry) ([4]; depending on duration of the melting status) | polymorph conversion on vacuum sublimation ([4]; vacuum sublimation at 1-2 kPa) | polymorph conversion in formulation ([2]; initially introduced polymorph B, after 30 h in formulation) | polymorph conversion in formulation ([2]; sample initially made from polymorph B, regular intervals over several months) | PTS at some frequencies ([3]; 4 and 8 kHz (FIG. 14)) | level of improvement of the PTS ([3]; listed as polymorphic form B) | average PTS (threshold shift) in treated animals [3, 8] | average PTS reduction versus vehicle-treated controls [3, 8] | conversion of polymorph B into form A (XRPD) ([5]; 3-1: n-heptane, 100° C. for 1:45 h, then room temperature 15 hrs) | conversion of polymorph B into form A (XRPD) ([5]; 3-2: toluene, heated to 95° C., cooled to room temperature, not reproducible) | conversion of polymorph B into form A (XRPD) ([5]; 3-3: n-heptane, 110° C., reflux 5 hrs 18 min, cooled, stirred 16 hrs) | conversion of polymorph B into form A (XRPD) ([5]; 3-4: n-heptane, 108° C., seed crystals of polymorph A added, cooled to room temperature) | polymorph conversion in supercritical CO2 [6] |
| --- | --- | --- | --- | --- | --- | --- | --- | --- | --- | --- | --- | --- | --- | --- | --- | --- | --- | --- | --- | --- |
| Cn1c2ccc(F)cc2c2ccncc21 [polymorph A, 6-fluoro-9-methyl-9H-β-carboline] | unstable | 60% | 100% | 10-18 dBs | 10-18 dBs | 14.6 dB | 7.7 dB |  |  |  |  |  |  |  |  |  |  |  |  |  |
| Cn1c2ccc(F)cc2c2ccncc21 [polymorph B, 6-fluoro-9-methyl-9H-β-carboline] | stable |  |  |  |  |  |  | up to a complete conversion | complete conversion into white crystals of polymorph A | no conversion | no polymorph conversion | 0 | 23-39 dBs | 0.6 dB | 34.1 dB | did not reveal conversion into form A | some presence of polymorph A | unchanged polymorph B | unchanged polymorph B | polymorph A is obtained; also recorded: transformation happened of polymorph B into polymorph A |
